The subject of data set [1] is ATXN3/Q75-GFP SH-SY5Y cells. The data set is described as follows: Neurite outgrowth analysis, CM/+IFN-γ-inflamed ATXN3/Q75-GFP SH-SY5Y cells. The conditions noted are these: 10 μM compound; for neurite process: untreated 1.4; for neurite length: untreated 14.4 μm. The class given is cell-based, human. The protocol:
(§1) ATXN3/Q75-GFP SH-SY5Y cells were plated on 24-well (1 × 10^4/well) dishes, and retinoic acid (10 μM; Sigma-Aldrich) was added to initiate neuronal differentiation. On the second day, cells were treated with the tested compound (10 μM) for 8 h before ATXN3-GFP expression induction by adding doxycycline (5 μg/ml). For comparison, cells without inducing ATXN3/Q75-GFP expression were included. The cells were kept in the medium containing retinoic acid, doxycycline and test compound for 6 days. For the cells with inflammatory stimulation, HMC3 conditioned medium with (CM/+IFN-γ) or without (CM/–IFN-γ) IFN-γ stimulation was added at a 1:1 ratio in the last two days. On the eighth day, cells were stained with Hoechst 33342 (0.1 μg/ml; Sigma-Aldrich) for 30 min, and images of the cells were automatically obtained using an ImageXpressMICRO high content analysis (HCA) system (Molecular Devices, San Jose, CA, USA). Excitation/emission filters were at 482/536 and 377/447 nm for enhanced GFP and Hoechst 33342, respectively. Aggregation was determined by Transfluor technology based on GFP fluorescence intensity. Neurite length, process and branch of ATXN3/Q75-GFP-expressing cells were analyzed by using Metamorph microscopy automation and image analysis software (neurite outgrowth application module, Molecular Devices). In addition, cells were fixed, permeated and stained with neuronal class III β-tubulin (TUBB3) antibody (1:1000; Covance, Princeton, NJ, USA), followed by anti-rabbit Alexa Fluor ®555 antibody (1:1000; Thermo Fisher Scientific) for neurite outgrowth analysis. To quantify neurite outgrowth, microscopic images were segmented with multi-colored mask to assign each outgrowth to a cell body for quantification. In general, 10^4 cells in each biological replicate were analyzed.

Data set [2] in a line: MTT cytotoxicity assay, HMC3 cells. The class given is cell-based. The conditions noted are these: human, 0.1−100 μM, 28 h treatment, read-out: IC50 (cytotoxicity, MTT viability). As to the method: (§2) To evaluate compound cytotoxicity, 2 × 10^4 (HMC3) or 1 × 10^4 (SH-SY5Y) cells were plated on 48-well dishes, grown for 20 h, and treated with the tested compounds (0.1−100 μM). After 28 h (HMC3) or 6 days (SH-SY5Y), 20 μl of 3-(4,5-dimethylthiazol-2-yl)-2,5-diphenyltetrazolium bromide (MTT) (5 mg/ml) was added to the cells at 37°C for 3 h. 200 μl of lysis buffer (10% Triton X-100, 0.1 N HCl, 18% isopropanol) was then added to dishes and the absorbance of the insoluble purple formazan product at OD 570 nm was read by a FLx800 fluorescence microplate spectrophotometer (Bio-Tek, Winooski, VT, USA). The IC50 of the tested compounds were calculated using the interpolation method.
For orientation: Tetrazolium dyes change colour on reduction, which living cells bring about.

Data set [3] is described as follows: MTT cytotoxicity assay, SH-SY5Y cells. The conditions noted are these: human, 0.1−100 μM, 6 days treatment, read-out: IC50 (cytotoxicity, MTT viability). The class given is cell-based. The protocol: as §2
In data set [4] the test system is ATXN3/Q75-GFP. The data set can be described thus: High content polyQ aggregation analysis, ATXN3/Q75-GFP SH-SY5Y cells. The class given is cell-based, human. The conditions noted are these: 10 μM compound, ATXN3/Q75-GFP-expressing cells; for reduction of aggregation: vs untreated 2.8%. The protocol:
as §1

Data set [5] deals with ATXN3/Q75-GFP SH-SY5Y cells. The data set is described as follows: Neurite outgrowth analysis, ATXN3/Q75-GFP SH-SY5Y cells. The note with it: 10 μM compound, ATXN3/Q75-GFP-expressing cells; for neurite branch: untreated 1.0; for neurite process: untreated 1.8; for neurite length: untreated 23.6 μm. The class given is cell-based, human. As to the method:
as §1

Data set [6] can be described thus: DPPH radical-scavenging assay. The note with it: 200 μM DPPH, compounds 10–160 μM, 30 min, room temperature. The protocol: The DPPH radical-scavenging activity was measured in an ethanol mixture containing 200 μM DPPH (Sigma-Aldrich) radical solution and the tested compounds (10–160 μM). The solution was vortexed and incubated for 30 min at room temperature. The scavenging capacity was measured by monitoring the decrease in absorbance at 517 nm with a microplate spectrophotometer (Multiskan GO, Thermo Fisher Scientific). The half maximal effective concentrations (EC50) for inhibition of the formation of DPPH radicals were calculated using the interpolation method.

The test system of data set [7] is ATXN3/Q75-GFP. The data set can be described thus: Western blot of soluble ATXN3/Q75-GFP protein. The class given is cell-based, human. The conditions noted are these: 10 μM compound; without compound = 100%. The protocol:
Cells were lysed using buffer (50 mM Tris-HCl pH8.0, 0.5% sodium deoxycholate, 0.1% SDS, 150 mM NaCl, 2 mM EDTA, 50 mM NaF and 1% NP40) containing the protease inhibitor cocktail (Sigma-Aldrich). After sonication, the lysates were centrifuged at 12,000 × g for 10 min at 4°C. Protein concentrations were determined using a protein assay kit (Bio-Rad, Hercules, CA, USA), with albumin as standards. Total soluble proteins (20 μg) were electrophoresed on 10% SDS-polyacrylamide gel and transferred onto polyvinylidene difluoride membrane (Sigma-Aldrich) by reverse electrophoresis. After being blocked, the membrane was stained with ATXN3 (1:1000; GeneTex, Irvive, CA, USA), GFP (1:1000; Santa Cruz Biotechnology, Santa Cruz, CA, USA), CD68 (1:1000; Cell Signaling), IκBα (1:1000; Cell Signaling), p-IκBα (S32/36) (1:1000; Cell Signaling), P65 (1:1000; Cell Signaling), p-P65 (S536) (1:1000; Cell Signaling), JNK (1:1000; Cell Signaling), p-JNK (T183/Y185) (1:500; Cell Signaling), JUN, p-JUN (S63) (1:1000; Cell Signaling), P38 (1:1000; Cell Signaling), p-P38 (T180/Y182) (1:1000; Cell Signaling), STAT1 (1:1000; Cell Signaling), p-STAT1 (S727) (1:1000; Cell Signaling), or GAPDH (1:5000; MDBio Inc., Taipei, Taiwan) primary antibody at room temperature 2 h or 4°C overnight. The immune complexes were detected using horseradish peroxidase (HRP)-conjugated goat anti-mouse or goat anti-rabbit IgG antibody (1:5000; GeneTex) and chemiluminescent HRP substrate (Millipore, Billerica, MA, USA).

Where only a bound is given, the exact number is not on record here.

On to `CCCCC/C=C\C/C=C\C/C=C\C/C=C\CCCC(=O)Nc1ccc(O)cc1` [AM404, reference compound], for which, in data set [1], the neurite process is given as 1.6 and the neurite length is given as 17.3–18.0 μm. The IC50 at 28 h in data set [2] was determined as 84 µM. In addition, in data set [3], the IC50 at 6 days was 49 µM. Besides, the “polyQ aggregation (cells with aggregates)” value in data set [4] (untreated 2.8%) is on record as “not reducing ATXN3/Q75 aggregation”. In addition, in data set [5], the neurite branch worked out at 1.4, the neurite process stood at 2.2 and the neurite length was found to be 30.8 μm. For the same compound, the midpoint of the response in data set [6], the EC50, lay at 141 µM.
In the case of `O=c1c(O)c(-c2ccc(O)cc2)oc2cc(O)cc(O)c12` [Kaempferol, kaempferol, reference compound], the EC50 in data set [6] turned out to be 27 µM.
As to `O=C(c1ccccc1)c1cc2c(O)cccc2oc1=O` [LM-031, 3-benzoyl-5-hydroxychromen-2-one], the results for the neurite branch in data set [1] (untreated 0.6) and in data set [5] were 0.8 and 1.2, respectively. The neurite process was 1.6 in data set [1] and 2.0–2.1 in data set [5]. Further, the neurite length in data set [1] is recorded as 17.3–18.0 μm; in data set [5], 26.9–27.2 μm. Moreover, the IC50 at 28 h in data set [2] was greater than 100 µM. The IC50 at 6 days in data set [3] is greater than 100 µM. For the same compound, in data set [4], the reduction of aggregation is listed as 12–25%. The “soluble ATXN3/Q75-GFP protein (Western blot, GFP antibody)” value (shortened to “soluble ATXN3/Q75-GFP protein”) in data set [7] was 144−173%. Further, a half-maximal response in data set [6] (EC50) required 100 µM.
As to `CC(=O)/C(=C/c1ccccc1[N+](=O)[O-])Cc1c[nH]c2ccccc12` [NC009-1], in data set [1], the neurite process worked out at 1.6 and the neurite length is 17.3–18.0 μm. Besides, in data set [2], the IC50 at 28 h is greater than 100 µM. Further, the IC50 at 6 days in data set [3] is 52 µM. For the same compound, the reduction of aggregation in data set [4] is on record as 12–25%. In data set [5], the neurite branch was 1.2, the neurite process is listed as 2.0–2.1 and the neurite length was 26.9–27.2 μm. Moreover, the “soluble ATXN3/Q75-GFP protein” value in data set [7] is given as 144−173%. Further, in data set [6], the “DPPH scavenging activity EC50” value is “no detectable DPPH-scavenging activity”.
On to `O=[N+]([O-])c1cccc2nc(/C=C/c3cc4ccccc4nc3N3CCOCC3)ccc12` [VB-037], for which, in data set [2], the IC50 at 28 h is greater than 100 µM. Moreover, in data set [3], the IC50 at 6 days amounted to 78 µM. Moreover, in data set [4], the reduction of aggregation is 12–25%. For the same compound, in data set [5], the neurite branch is 1.2, the neurite process is recorded as 2.0–2.1 and the neurite length is 26.9–27.2 μm. In data set [7], the “soluble ATXN3/Q75-GFP protein” value is recorded as 144−173%. Also, in data set [6], the “DPPH scavenging activity EC50” value was “no detectable DPPH-scavenging activity”.

A word on the IC50: it is the point on the concentration scale where inhibition reaches its midpoint. The EC50 is the concentration that produces a half-maximal response.

Source of the values: publication PMC7762503, “Pathomechanism characterization and potential therapeutics identification for SCA3 targeting neuroinflammation” (Aging (Albany NY), 2020).
